These results are taken from patent publication US8497083B2, “Fructosyl amino acid oxidase” (priority 2009, dated 2013).

For this assay, the target named is fructosyl amino acid oxidase from Phaeosphaeria nodorum (PnFPOX, SEQ ID NO: 1) variant N56A (Parastagonospora nodorum, UniProt Q0UIL6, N56A). The assay can be described thus: Oxidase activity kinetics (4AA/TODB/POD), PnFPOX N56A mutant. The assay is classed as biochemical. The conditions noted are these: purified enzyme, 25° C., pH 7.0. From the text:
As used herein “oxidase activity” is an enzymatic activity (Vmax) of the fructosyl amino acid oxidase to catalyze oxidation of fructosyl amino acid to generate 2-keto-D-glucose and the corresponding amino acid while utilizing oxygen as an electron acceptor. The oxidase activity may be assayed by measuring the amount of generated H2O2 by any methods known in the art, including by way of non-limiting example, reagents for H2O2 detection such as […] (4-aminoantipyrine/N,N-Bis(4-sulfobutyl)-3-methylaniline disodium salt/horseradish peroxidase) or by Pt electrode. As used herein in the context of the relative or quantitative activity, the oxidase activity is specifically defined to be the mole amount of the substrate (fructosyl amino acid) oxidized per unit time measured by the amount of generated H2O2 at 25° C. in 10 mM PPB, pH 7.0, 1.5 mM TODB, 2 U/ml horseradish peroxidase (POD), and 1.5 mM 4-aminoantipyrine (4AA). The formation of quinoneimine dye may be measured spectrophotometrically at 546 nm.
Escherichia coli BL21 (DE3) cells harboring expression vectors of N1-1 FAOD (SEQ ID NO: 2) mutants were grown in 150 ml of LB medium containing 50 μg/ml kanamycin at 37° C. After reaching an A660 value of 0.6, 0.3 mM IPTG was added and incubated at 25° C. for an additional 5 hours. The cells were collected by centrifugation and washed twice with 0.85% NaCl.aq. Then, the cells were resuspended in 10 mM Potassium Phosphate Buffer (PPB) pH 7.0 and lysed by ultrasonic homogenizer. The lysate was centrifuged at 10,000×g, 4° C. for 10 min, and the supernatant was centrifuged at 50,000 rpm, 4° C. for 60 min, then the supernatant was dialyzed against 10 mM PPB (pH 7.0). The oxidase activity was assayed at 25° C. in 10 mM PPB, pH 7.0, 1.5 mM TODB, 2 U/ml horseradish peroxidase (POD), and 1.5 mM 4-aminoantipyrine (4AA) in the presence of substrates (0.2, 0.5, 0.75, 1, 2, 5 mM f-^αVal […]). The formation of quinoneimine dye was measured spectrophotometrically at 546 nm. The dehydrogenase activity was assayed at 25° C. in 10 mM PPB (pH 7.0), 0.6 mM DCIP, and 6 mM methoxy PMS (mPMS) in the presence of substrates (0.2, 0.5, 1, 2, 5 mM f-^αVal or 5 mM f-^αVal-His).
Mutations were introduced using site-directed mutagenesis as in Example 1, and BL21 (DE3) cells were transformed with an expression vector containing wild-type or mutant PnFPOX (SEQ ID NO: 1). The cultured cells were resuspended in 10 mM PPB, pH 7.0, and lysed by sonication. The lysate was centrifuged at 10,000 g at 4° C. for 20 min, and the supernatant was centrifuged at 50,000 rpm at 4° C. for 60 min. The oxidase and dehydrogenase activities were measured as in Example 1.
BL21 (DE3) transformed with pEPN (pET28a-PnFPOX)-N56A was grown aerobically at 37° C. in LB medium (2 l) containing 50 μg kanamycin ml^−1. […]

Chain of fructosyl amino acid oxidase from Phaeosphaeria nodorum (PnFPOX, SEQ ID NO: 1) variant N56A (Q0UIL6 whole entry N56A): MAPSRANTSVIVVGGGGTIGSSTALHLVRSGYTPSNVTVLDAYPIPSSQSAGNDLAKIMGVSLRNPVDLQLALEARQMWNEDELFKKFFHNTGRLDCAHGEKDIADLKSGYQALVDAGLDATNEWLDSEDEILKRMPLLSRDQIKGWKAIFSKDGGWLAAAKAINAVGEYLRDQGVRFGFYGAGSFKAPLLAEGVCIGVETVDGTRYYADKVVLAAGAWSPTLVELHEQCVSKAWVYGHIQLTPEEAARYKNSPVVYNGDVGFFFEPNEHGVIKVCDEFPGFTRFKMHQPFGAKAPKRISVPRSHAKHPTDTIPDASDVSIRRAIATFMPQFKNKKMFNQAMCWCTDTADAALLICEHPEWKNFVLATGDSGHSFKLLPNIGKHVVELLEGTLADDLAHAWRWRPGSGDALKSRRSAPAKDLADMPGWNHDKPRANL

For the molecule `CC(C)[C@H](NCC1(O)OC[C@@H](O)[C@@H](O)[C@@H]1O)C(=O)O` (stereo partly shown) [f-αVal, fructosyl valine], the Vmax is 4.39 U/mg.
